Several values for one entry are separate records, joined by “and”; a condition that tells them apart may be missing. Identical values can stand only once. Like-named read-outs stand apart in the source and are kept apart here. Starred links: 1 amine or outer side, 2 acyl side, 3 side chain; linkers in the order of their positions; H or OH if unused. Non-standard residues stand in square brackets, D forms with d. Residues, ends and D or L forms follow the SMILES beside them. NMeF = CN[C@@H](Cc1ccccc1)C(=O)O; pGlu = O=C1CC[C@@H](C(=O)O)N1; Suc = O=C(CCC(=O)[*:2])[*:1]
Experiments:
tiTac3ra [1] = target: T1, tiTac3ra (Oreochromis niloticus, UniProt A0A075QPN8); experiment: cell-based; settings: COS-7 cells, mean ± SEM
Source text: (§2) Receptor transactivation assays were generally performed according to Biran et al. ([10]). Briefly, in order to study the signaling pathways of the novel fish NKB and NKF analogs, the entire coding sequence of tiTac3ra (GenBank accession no. KF471674), tiTac3rb (GenBank accession no. KF471675), zfTac3ra (GenBank accession no. JF317292) and zfTac3rb (GenBank accession no. JF317293) were inserted into pcDNA3.1 (Invitrogen). To differentiate between the protein kinase A (PKA) and PKC signal transduction pathways, we used a sensitive luciferase (Luc) reporter gene assay. […] Three micrograms of each construct together with three micrograms of a luciferase reporter plasmid were transiently co-transfected into COS-7 cells. […] EC50 values were calculated from dose response curves by means of computerized non-linear curve fitting on baseline-corrected (control) values using Prism version 6 software (GraphPad).

zfTac3ra = target: T2, zfTac3ra (Danio rerio, UniProt H6A6A7); experiment: CRE-/SRE-Luc receptor transactivation reporter assay in COS-7 cells, zebrafish Tac3ra; type: cell-based; settings: mean ± SEM
T2 sequence (H6A6A7 1-399): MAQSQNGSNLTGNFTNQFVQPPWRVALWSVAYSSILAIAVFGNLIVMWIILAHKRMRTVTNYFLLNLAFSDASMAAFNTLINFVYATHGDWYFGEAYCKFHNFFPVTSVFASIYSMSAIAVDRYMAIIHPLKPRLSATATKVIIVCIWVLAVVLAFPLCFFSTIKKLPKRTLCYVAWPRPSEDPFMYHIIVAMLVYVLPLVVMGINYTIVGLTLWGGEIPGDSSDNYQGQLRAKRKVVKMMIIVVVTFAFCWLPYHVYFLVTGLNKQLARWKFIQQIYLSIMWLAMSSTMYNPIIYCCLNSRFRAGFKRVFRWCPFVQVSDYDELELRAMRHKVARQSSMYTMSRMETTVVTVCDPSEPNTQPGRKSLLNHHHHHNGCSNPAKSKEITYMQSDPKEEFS
Source text: (§1) Receptor transactivation assays were generally performed according to Biran et al. ([10]). Briefly, in order to study the signaling pathways of the novel fish NKB and NKF analogs, the entire coding sequence of tiTac3ra (GenBank accession no. KF471674), tiTac3rb (GenBank accession no. KF471675), zfTac3ra (GenBank accession no. JF317292) and zfTac3rb (GenBank accession no. JF317293) were inserted into pcDNA3.1 (Invitrogen). To differentiate between the protein kinase A (PKA) and PKC signal transduction pathways, we used a sensitive luciferase (Luc) reporter gene assay. […] The cDNA clone for human TAC3R was obtained from the Missouri S&T cDNA Resource Center (www.cdna.org). Three micrograms of each construct together with three micrograms of a luciferase reporter plasmid were transiently co-transfected into COS-7 cells. […] EC50 values were calculated from dose response curves by means of computerized non-linear curve fitting on baseline-corrected (control) values using Prism version 6 software (GraphPad).

huTAC3R (NK3R) = target: T3, huTAC3R (NK3R) (Homo sapiens, UniProt P29371); experiment: CRE-/SRE-Luc receptor transactivation reporter assay in COS-7 cells, human TAC3R; type: cell-based; settings: mean ± SEM
T3 construct: host or cells: COS-7
T3 sequence (P29371 1-465): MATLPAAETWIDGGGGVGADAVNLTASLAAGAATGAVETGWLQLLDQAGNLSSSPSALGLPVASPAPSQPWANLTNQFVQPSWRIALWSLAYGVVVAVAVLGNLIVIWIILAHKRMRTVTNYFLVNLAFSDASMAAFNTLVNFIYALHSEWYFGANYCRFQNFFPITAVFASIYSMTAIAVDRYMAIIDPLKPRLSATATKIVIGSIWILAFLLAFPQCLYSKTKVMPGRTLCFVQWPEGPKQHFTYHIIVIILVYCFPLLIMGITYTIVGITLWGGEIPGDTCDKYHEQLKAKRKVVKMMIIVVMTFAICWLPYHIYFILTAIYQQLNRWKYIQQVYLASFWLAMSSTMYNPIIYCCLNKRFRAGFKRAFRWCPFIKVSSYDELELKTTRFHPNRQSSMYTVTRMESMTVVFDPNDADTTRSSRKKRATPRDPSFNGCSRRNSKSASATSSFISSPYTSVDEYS
Source text: as §1

tiTac3rb = tiTac3rb (Oreochromis niloticus, UniProt A0A075QUD7); experiment: cell-based; settings: COS-7 cells, mean ± SEM
Source text: as §2

zfTac3rb = target: T4, zfTac3rb (Danio rerio, UniProt F1R3V0); experiment: CRE-/SRE-Luc receptor transactivation reporter assay in COS-7 cells, zebrafish Tac3rb; type: cell-based; settings: mean ± SEM
T4 sequence (F1R3V0 1-395): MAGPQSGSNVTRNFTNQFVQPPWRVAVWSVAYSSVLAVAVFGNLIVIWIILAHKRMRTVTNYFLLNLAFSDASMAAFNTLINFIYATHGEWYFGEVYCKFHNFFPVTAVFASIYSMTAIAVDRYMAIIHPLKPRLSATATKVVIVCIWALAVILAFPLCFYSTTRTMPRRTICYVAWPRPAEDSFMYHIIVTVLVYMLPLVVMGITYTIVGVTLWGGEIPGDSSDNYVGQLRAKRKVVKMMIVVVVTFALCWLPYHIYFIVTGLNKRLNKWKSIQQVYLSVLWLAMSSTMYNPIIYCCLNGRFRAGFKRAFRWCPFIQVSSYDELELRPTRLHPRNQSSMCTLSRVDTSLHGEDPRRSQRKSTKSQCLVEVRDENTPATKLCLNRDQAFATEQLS
Source text: as §1

female tilapia pituitary = experiment: In vivo effect on pituitary gh, fsh and lh mRNA expression (real-time PCR); design: species or system Nile tilapia (O. niloticus); settings: 24 h post IP injection, 100 μg/kg BW
Procedure: Adult female tilapia (BW 89.29 ± 32.93 g) were injected IP with saline, sGnRH analog ([…]; 10 μg/kg BW; [[…],[…]-Net]-mammalian GnRH; Bachem), tiNKB, tiNKF, or their analogs at 100 μg/kg BW (n = 8 fish per group). The fish were bled from the caudal blood vessels into heparinized syringes 1, 2, 4, 8, and 24 h after injection and blood was centrifuged (3,200 rpm for 30 min at 4°C) to obtain plasma samples, which were stored at -20°C until assayed. This time course is according to standard protocols used previously ([28], [29]) to test the effect of GnRH and other hypothalamic neuropeptides on circulating levels of LH, FSH, and GH in tilapia. Blood samples were collected from the caudal vasculature. Three independent experiments were carried out for the in vivo studies. Pituitaries and three parts of the brain [the olfactory bulbs and telencephalon (front brain), the optic tectum and diencephalon (mid brain), and the cerebellum (hind brain)] were harvested at the end of each in vivo experiment, snap-frozen in liquid nitrogen, and stored at -80°C until extraction. Total RNA was extracted by phenol-chloroform using TRIzol reagent (Invitrogen) and precipitated with ethanol, and 1 μg was used as a template for cDNA synthesis using Verso cDNA kit (Thermo Scientific, Waltham, MA). Real-time PCR analysis was performed according to Biran et al. ([10], [20]). The specificity of the amplification was tested at the end of the PCR by melting-curve analysis and sequencing the PCR products.

female tilapia = experiment: In vivo effect on GH, FSH and LH plasma levels (ELISA) after IP injection; design: species or system Nile tilapia (O. niloticus); settings: peptides/analogs 100 μg/kg BW
Procedure: Adult female tilapia (BW 89.29 ± 32.93 g) were injected IP with saline, sGnRH analog ([…]; 10 μg/kg BW; [[…],[…]-Net]-mammalian GnRH; Bachem), tiNKB, tiNKF, or their analogs at 100 μg/kg BW (n = 8 fish per group). The fish were bled from the caudal blood vessels into heparinized syringes 1, 2, 4, 8, and 24 h after injection and blood was centrifuged (3,200 rpm for 30 min at 4°C) to obtain plasma samples, which were stored at -20°C until assayed. This time course is according to standard protocols used previously ([28], [29]) to test the effect of GnRH and other hypothalamic neuropeptides on circulating levels of LH, FSH, and GH in tilapia. Blood samples were collected from the caudal vasculature. Three independent experiments were carried out for the in vivo studies. Levels of LH, FSH, and GH in the plasma were measured by specific competitive ELISAs developed for tilapia ([30], [31]) based on recombinant ([…] or rtiGH. Primary antisera was produced against […]β, or rtGH ([31]), and […]βα ([28]) or rtGH was used for generating the standard curves.

tiTac3ra [2] = target: T1, tiTac3ra; settings: read-out: EC50 tiTac3ra SRE; SRE-Luc reporter (PKC/Ca2+), COS-7 cells, mean ± SEM
Source text: as §2

[3] = EC50 tiTac3ra CRE, CRE-Luc reporter (PKA/cAMP)
[4] = EC50 tiTac3ra SRE, SRE-Luc reporter (PKC/Ca2+)
[5] = SRE-Luc reporter (PKC/Ca2+), read-out: EC50 huTAC3R (NK3R) SRE
[6] = EC50 tiTac3rb CRE, CRE-Luc reporter (PKA/cAMP)
[7] = EC50 tiTac3rb SRE, SRE-Luc reporter (PKC/Ca2+)

tiTac3rb, sequence (A0A075QUD7 1-361): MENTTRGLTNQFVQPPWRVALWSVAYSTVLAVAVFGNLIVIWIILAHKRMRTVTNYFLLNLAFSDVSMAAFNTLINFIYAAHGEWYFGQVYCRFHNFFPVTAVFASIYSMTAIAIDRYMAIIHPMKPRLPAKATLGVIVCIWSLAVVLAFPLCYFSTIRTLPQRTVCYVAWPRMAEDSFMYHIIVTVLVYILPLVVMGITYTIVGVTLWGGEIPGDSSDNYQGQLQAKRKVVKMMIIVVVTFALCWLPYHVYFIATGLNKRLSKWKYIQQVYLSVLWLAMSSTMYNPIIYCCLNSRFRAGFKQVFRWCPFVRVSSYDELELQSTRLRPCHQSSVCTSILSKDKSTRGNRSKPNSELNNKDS
T1 sequence (A0A075QPN8 1-415): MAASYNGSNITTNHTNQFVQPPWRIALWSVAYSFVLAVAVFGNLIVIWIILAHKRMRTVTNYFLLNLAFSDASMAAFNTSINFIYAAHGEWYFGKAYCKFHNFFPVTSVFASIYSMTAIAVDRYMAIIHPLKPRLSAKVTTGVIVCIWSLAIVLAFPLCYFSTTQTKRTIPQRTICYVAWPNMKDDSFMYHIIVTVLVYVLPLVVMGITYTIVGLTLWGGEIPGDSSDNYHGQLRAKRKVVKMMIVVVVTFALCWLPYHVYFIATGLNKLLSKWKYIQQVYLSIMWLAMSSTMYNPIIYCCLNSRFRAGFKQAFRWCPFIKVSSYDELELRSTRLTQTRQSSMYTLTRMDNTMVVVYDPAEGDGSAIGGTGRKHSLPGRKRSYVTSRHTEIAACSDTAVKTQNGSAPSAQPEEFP

| SMILES | EC50 (tiTac3ra [1]; [3]) | EC50 (tiTac3ra [1]; [4]) | EC50 (zfTac3ra; CRE-Luc reporter (PKA/cAMP), read-out: EC50 zfTac3ra CRE) | EC50 (zfTac3ra; SRE-Luc reporter (PKC/Ca2+), read-out: EC50 zfTac3ra SRE) | EC50 (huTAC3R (NK3R); [5]) | EC50 (tiTac3rb; [6]) | EC50 (tiTac3rb; [7]) | EC50 (zfTac3rb; CRE-Luc reporter (PKA/cAMP), read-out: EC50 zfTac3rb CRE) | EC50 (zfTac3rb; SRE-Luc reporter (PKC/Ca2+), read-out: EC50 zfTac3rb SRE) | GH mRNA expression in pituitary relative to control (female tilapia pituitary) | LHβ mRNA expression in pituitary relative to control (female tilapia pituitary) | time post-injection at which plasma FSH was first increased (female tilapia) | time post-injection at which plasma LH was first increased (female tilapia; sGnRHa 10 μg/kg BW) | EC50 (tiTac3ra [2]) | EC50 (huTAC3R (NK3R); CRE-Luc reporter (PKA/cAMP), read-out: EC50 huTAC3R (NK3R) CRE) | FSHβ mRNA expression in pituitary relative to control (female tilapia pituitary) | time post-injection at which plasma GH was first increased (female tilapia) | duration of increased plasma LH post-injection (female tilapia; sGnRHa 10 μg/kg BW) |
| --- | --- | --- | --- | --- | --- | --- | --- | --- | --- | --- | --- | --- | --- | --- | --- | --- | --- | --- |
| CSCC[C@H](NC(=O)[C@H](CC(C)C)NC(=O)CNC(=O)[C@H](C(C)C)N(C)C(=O)[C@H](Cc1ccccc1)NC(=O)[C@H](CO)NC(=O)[C@H](CC(=O)O)NC(=O)CCC(=O)O)C(N)=O [NKF analog, Succ-Asp-Ser-Phe-N(Me)Val-Gly-Leu-Met-NH2] | 2.57 ± 0.33 nM | 1.73 ± 0.46 nM | 0.47 nM and 0.474 nM | 1.15 ± 0.4 nM | 43.2 ± 1.06 nM | 160.6 ± 0.42 nM | 74.89 ± 0.66 nM | 2.69 ± 0.38 nM | 25.74 ± 0.24 nM | increased | increased | 2 h | 1 h |  |  |  |  |  |
| CSCC[C@H](NC(=O)[C@H](CC(C)C)NC(=O)CNC(=O)[C@H](Cc1ccccc1)N(C)C(=O)[C@H](Cc1ccccc1)NC(=O)[C@H](CC(=O)O)NC(=O)CCC(=O)O)C(N)=O [Senktide] (Suc-DF[NMeF]GLM-NH2) | 14.1 ± 0.61 nM |  |  |  |  | 3541 ± 1.47 nM | 50.16 ± 0.17 nM |  |  |  |  |  |  | 128 ± 35 nM |  |  |  |  |
| CC[C@H](C)[C@H](NC(=O)[C@H](Cc1ccccc1)NC(=O)[C@@H](NC(=O)[C@H](CC(=O)O)NC(=O)[C@H](CC(=O)O)NC(=O)[C@H](CCSC)NC(=O)[C@@H]1CCC(=O)N1)[C@@H](C)CC)C(=O)NCC(=O)N[C@@H](CC(C)C)C(=O)N[C@@H](CCSC)C(N)=O [tiNKB] ([pGlu]MDDIFIGLM-NH2) | 0.8 nM and 0.81 nM | 7.41 ± 0.44 nM |  |  | 0.02 nM | 26.5 ± 0.27 nM |  |  |  | increased | increased | 2 h | 2 h |  | 3.38 ± 0.42 nM | increased | 1 h | up to 4 h |
